# PubChem BioAssay AID540252 (Sanford-Burnham Center for Chemical Genomics, 2011)
# Activity calls are given as the source filed them. No rule for the calls is given here.
# Target: glucose-6-phosphate dehydrogenase-6-phosphogluconolactonase (Plasmodium falciparum 3D7)
# Assay: inhibition of P. falciparum G6PD activity – biochemical, end-point NADPH detection, orthogonal assay, dose response (AID 540252)
# Conditions: purified PfG6PD enzyme, NADPH direct detection
row,SMILES,IC50
1,Cc1c(Cl)c([N+](=O)[O-])nn1Cc1ccc(C(=O)N/N=C\c2cccc(Br)c2)o1,> 80 µM (inactive)
2,CC1(OC(=O)C2CCCC2)C(=O)C=C2C=C(c3ccsc3)N(Cc3ccc4c(c3)OCO4)C=C2C1=O (stereo unspecified),> 80 µM (inactive)
3,Cc1c(/C=C/C(=O)c2ccc(Cl)s2)cnn1C,> 80 µM (inactive)
4,Cc1[nH]c(=S)c(C#N)c(C)c1CCC#N,> 80 µM (inactive)
5,O=[N+]([O-])c1ccc(N/N=C/c2ccc(O)c(O)c2O)c(S(=O)(=O)N2CCOCC2)c1,47.5 µM
6,CC(=O)Nc1cc2c(cc1[N+](=O)[O-])-c1ccccc1C2O (stereo unspecified),74.5 µM
7,Cc1cc(NC(=O)c2oc3ccccc3c2C)ccc1-n1cnnn1,> 80 µM (inactive)
8,CC1=C(O)C(=O)C=C2C1=CC=C1C2(C)CCC2(C)C3CC(C)(C(=O)O)CCC3(C)CCC12C (stereo unspecified),> 80 µM (inactive)
9,O=C(CCc1ccc(S(=O)(=O)N2CCOCC2)cc1)N/N=C/c1ccc(O)c(O)c1O,> 80 µM (inactive)
10,COc1cccc(C(=O)Nc2nnc(C(C)C)s2)c1,> 80 µM (inactive)
11,CCOC(=O)C1CCCN(C(=O)Cn2sc3nc(C)cc(C)c3c2=O)C1 (stereo unspecified),> 80 µM (inactive)
12,c1cc2c(cc1NC1CCCCCC1)OCO2,> 80 µM (inactive)
13,O=C1C=CC(=O)N1CCCCCCCCCCN1C(=O)C=CC1=O,> 80 µM (inactive)
14,NCCc1cc(O)c(O)cc1O,> 80 µM (inactive)
15,COC(=O)CCC(=O)OC1(C)C(=O)C2=CN(c3ccccc3)C(c3ccc(OC)cc3)=CC2=C(Br)C1=O (stereo unspecified),> 80 µM (inactive)
16,COC(=O)c1cc2c(n1S(=O)(=O)c1ccc(C)cc1)C(=O)C(=O)c1[nH]cc(C(=O)OCc3ccccc3)c1-2,> 80 µM (inactive)
17,ClC(Cl)(c1nnnn1-c1ccccc1)c1nnnn1-c1ccccc1,56.2 µM
18,COc1cc(N=c2ssnc2Cl)cc(OC)c1OC,54 µM
19,NC1CCc2cc(O)c(O)cc2C1 (stereo unspecified),27.5 µM
20,O=C(O)CSc1cc(NS(=O)(=O)c2cccc([N+](=O)[O-])c2)c2ccccc2c1O,> 80 µM (inactive)
21,COc1ccc(/C=C/c2nc3ccccc3n2C)cc1,> 80 µM (inactive)
22,Cc1cccc(C(=O)Nc2sc3c(c2C(=O)O)CCCC3)c1,> 80 µM (inactive)
23,Cc1ccc(C(=O)/C=C/C(=O)c2ccc(C)cc2)cc1,42 µM
24,CCC(CO)[n+]1c(C)cc(/C=C2\Sc3ccccc3N2Cc2ccccc2)cc1C (stereo unspecified),> 80 µM (inactive)
25,COc1cc(/C=N/n2cc(-c3ccccc3)[nH]c2=S)cc(OC)c1O,> 80 µM (inactive)
26,COc1ccc(C(=O)Nc2sc3c(c2C(=O)O)CC(C)(C)OC3)cc1,> 80 µM (inactive)

row,SMILES,IC50
1,O=C(Nc1nnc(S(=O)(=O)N2CCCCC2)s1)c1cccc(Br)c1,> 80 µM (inactive)
2,CCN(CC)c1ccc(C(=C2C=CC(=[N+](CC)CC)C=C2)c2ccc(N(CC)CC)cc2)cc1,39.6 µM
3,[O-]/[N+](=C\c1ccccc1)c1ccc(Br)cc1,66 µM
4,Cc1ccc(-c2c(C(=O)N/N=C/c3ccsc3)nnn2-c2nonc2N)cc1,> 80 µM (inactive)
5,O=c1ccsn1Cc1ccccc1,55.8 µM
6,O=C(Nc1nnc(S(=O)(=O)N2CCCC2)s1)c1cccc([N+](=O)[O-])c1,> 80 µM (inactive)
7,C[C@]12CC[C@@H]3c4ccc(O)c(O)c4CC[C@H]3[C@@H]1CC[C@@H]2O,22.3 µM
8,NC(=O)N/N=C/c1ccc(-n2nncc2-c2ccc(Cl)cc2)cc1,> 80 µM (inactive)
9,O=C(CCc1ccc(O)c(O)c1)N/N=C/c1cc2c(cc1[N+](=O)[O-])OCO2,> 80 µM (inactive)
10,COc1cc(SSc2cc(OC)cc([N+](=O)[O-])c2N)c(N)c([N+](=O)[O-])c1,13.1 µM
11,Cc1ccc(-n2sc3cc(F)ccc3c2=O)c(C)c1,12.2 µM
12,COc1cccc(/C=N/NC(=O)c2c(C)nc3ccc(Br)cn23)c1,> 80 µM (inactive)
13,Cc1cc(C)c(S(=O)(=O)Nc2cc(SCC(=O)O)c(O)c3ccccc23)cc1C,> 80 µM (inactive)
14,COc1ccc(CN(C)S(=O)(=O)c2nnc(NC(=O)c3ccc(C)cc3)s2)cc1OC,> 80 µM (inactive)
15,CC(=O)OCCCNc1cc(Sc2nc3ccccc3s2)c2nonc2c1[N+](=O)[O-],> 80 µM (inactive)
16,Cc1noc(C(=O)Nc2sc3c(c2C#N)CCC3)c1Cl,> 80 µM (inactive)
17,CCc1nnc(NC(=O)c2ccc(Cl)nc2)s1,> 80 µM (inactive)
18,COc1cccc(-c2c(C(=O)N/N=C/c3ccc(C)o3)nnn2-c2nonc2N)c1,> 80 µM (inactive)
19,Cc1ccc(N2CC(C(=O)OCC(=O)c3ccc([N+](=O)[O-])cc3)CC2=O)cc1 (stereo unspecified),50.9 µM
20,CCn1c2ccccc2c2cc(/C=N/n3cn[nH]c3=S)ccc21,> 80 µM (inactive)
21,COc1cc(NCCCn2cnc3c(OCc4ccccc4)ncnc32)cc(OC)c1OC,> 80 µM (inactive)
22,CCn1c(SCC(=O)Nc2ccccc2OC)nnc1-c1cnccn1,> 80 µM (inactive)
23,O=c1c2ccccc2sn1-c1ccc(S(=O)(=O)N2CCCC2)cc1,36.6 µM
24,CN1C(=O)CSc2ccc(NC(=O)N3CCc4ccccc43)cc21,> 80 µM (inactive)
25,CCN1CCCC1CNC(=O)c1ccc2c(c1)NC(=O)/C(=C\c1ccccc1F)S2 (stereo unspecified),> 80 µM (inactive)
26,CN=c1nc(-c2ccccc2)n(-c2ccccc2)s1,13.3 µM

row,SMILES,IC50
1,Clc1ccc2nc(-c3ccc(Br)s3)cn2c1,> 80 µM (inactive)
2,COC1(OC)C=CC(=O)C=C1NC(=O)c1ccccc1OC(C)=O,> 80 µM (inactive)
3,Cc1ccc(S(=O)(=O)Oc2cccc(/C=N/Nc3ccc(C(=O)O)cc3)c2)cc1,> 80 µM (inactive)
4,Cc1ccc(S(=O)(=O)SCCCSS(=O)(=O)c2ccc(C)cc2)cc1,38.8 µM
5,CC1(C)Cc2c(sc3nc4n(-c5ccccc5)c(=O)c(CCC(=O)O)nn4c(=O)c23)CO1,8.84 µM
6,Cc1cc(C)c2c(=O)n(CC(=O)Nc3ccc(Cl)cc3)sc2n1,> 80 µM (inactive)
7,COc1cc(N=c2ssnc2Cl)cc(OC)c1,72.6 µM
8,O=[N+]([O-])c1cccc(SSc2cccc([N+](=O)[O-])c2)c1,45.3 µM
9,COc1ccc(-c2cn3cc(C)ccc3n2)cc1Br,> 80 µM (inactive)
10,Cc1nnc(N/N=C\c2ccc(-c3cccc(C(=O)O)c3)o2)n1N,> 80 µM (inactive)
11,O=C(Cn1sc2ccccc2c1=O)Nc1ccc(F)cc1,21.9 µM
12,CCc1ccc(OCC(=O)N/N=C/c2cc([N+](=O)[O-])ccc2N2CCOCC2)cc1,> 80 µM (inactive)
13,O=C(Nc1ccc(N2CCN(C(=O)c3ccco3)CC2)c(Cl)c1)c1cc2ccccc2o1,> 80 µM (inactive)
14,CCOC(=O)CSc1nnc(NC(=O)c2cccc([N+](=O)[O-])c2)s1,> 80 µM (inactive)
15,CNCc1ccccc1Sc1cc(O)ccc1O,> 80 µM (inactive)
16,Cc1cc(C)nc(NC(N)=NCCc2ccccc2)n1,> 80 µM (inactive)
17,CC(C)(C)c1ccc(O)c(O)c1,54.8 µM
18,Cc1ccc(/C=C/C(=O)NCc2ccc(S(N)(=O)=O)cc2)o1,> 80 µM (inactive)
19,O=c1c2ccccc2sn1-c1nccs1,26.2 µM
20,CC1(OC(=O)C2CCCC2)C(=O)C=C2C=C(c3ccsc3)N(CCc3c[nH]c4ccccc34)C=C2C1=O (stereo unspecified),> 80 µM (inactive)
21,OCCN1CCN(C(=S)c2ccc(-c3ccccc3)cc2)CC1,> 80 µM (inactive)
22,N#Cc1ccc(N=c2ssnc2Cl)cc1,49 µM
23,S=C(NN=Cc1ccccn1)N(Cc1ccccn1)Cc1ccccn1,> 80 µM (inactive)
24,CC(CNc1ccccc1O)C(=O)O (stereo unspecified),> 80 µM (inactive)
25,CCOc1ccc(NC(=O)Cn2sc3nc(C)cc(C)c3c2=O)cc1,> 80 µM (inactive)
26,COc1ccc2ccccc2c1C1CC(=O)N2CN(C3CCCCC3)CSC2=C1C#N (stereo unspecified),> 80 µM (inactive)

row,SMILES,IC50
1,Cc1ccc(NS(=O)(=O)c2ccccc2Cl)c2c1CC(C)(C)O2,> 80 µM (inactive)
2,O=S(c1ccccc1O)S(=O)c1ccccc1O (stereo unspecified),> 80 µM (inactive)
3,Cc1cccc(C2(c3cccc(C)c3)CC2C(=O)Nc2ccc([N+](=O)[O-])cc2O)c1 (stereo unspecified),> 80 µM (inactive)
4,O=C1NC(=O)C(=Cc2ccc(-c3ccccc3[N+](=O)[O-])o2)C(=O)N1,> 80 µM (inactive)
5,O=c1c2ccccc2[se]n1-c1ccccc1,13.5 µM
6,CCN(CC)c1ccc(C(=C2C=CC(=[N+](CC)CC)C=C2)c2ccccc2)cc1,> 80 µM (inactive)
7,Cc1cc(C)c2sc(NC(=O)C3=COCCO3)nc2c1,> 80 µM (inactive)
8,O=C1/C(=C\c2ccc([N+](=O)[O-])cc2)CS(=O)(=O)C/C1=C/c1ccc([N+](=O)[O-])cc1,> 80 µM (inactive)
9,OCCN1CCN(C(=S)c2ccc(Cl)c(Cl)c2)CC1,> 80 µM (inactive)
10,Cc1ccc(Nc2cc(C)c(O)c(C)c2)cc1,> 80 µM (inactive)
11,CN(CCO)c1cc(Sc2nc3ccccc3s2)c2nonc2c1[N+](=O)[O-],24 µM
12,Oc1cc(-n2cccn2)c(O)cc1-n1cccn1,> 80 µM (inactive)
13,C=CCN=c1scc(-c2ccco2)n1/N=C/c1ccc(O)c(O)c1O,> 80 µM (inactive)
14,Cc1ccc(-c2csc(NC(=O)c3ccccc3F)c2C(=O)O)cc1,> 80 µM (inactive)
15,O=[N+]([O-])c1c(NCCO)cc(Sc2nc3ccccc3s2)c2nonc12,> 80 µM (inactive)
16,N#C/C(C(=O)Nc1ccc(Cl)cc1)=C(/S)Nc1ccccc1,> 80 µM (inactive)
17,CCn1c([N+](=O)[O-])nc2c1c(=O)[nH]c(=O)n2C,> 80 µM (inactive)
18,COC(=O)C1=C(C(=O)OC)SC2(S1)C(C(=O)OC)=C(C(=O)OC)Sc1c2ssc1=O,> 80 µM (inactive)
19,C=C1C(=O)O[C@@H]2C[C@@H](C)[C@@H]3C=CC(=O)[C@@]3(C)[C@@H](OC(=O)CC(=O)O[C@H]3[C@@H]4C(=C)C(=O)O[C@@H]4C[C@@H](C)[C@@H]4C=CC(=O)[C@]43C)[C@H]12,> 80 µM (inactive)
20,COc1cc(N2C(=O)C=CC2=O)ccc1N1C(=O)C=CC1=O,16.5 µM
21,Cc1ccsc1/C=N/NC(=O)c1cccc(S(=O)(=O)Nc2ccccc2Cl)c1,> 80 µM (inactive)
22,CN(C)c1ccc(C=c2c3ccccc3n3c2c2ccccc2[n+]3C)cc1,> 80 µM (inactive)
23,CCOC(=O)c1sc(NC(=O)CSc2nnc(Cc3ccccc3)o2)c(C#N)c1C,> 80 µM (inactive)
